The text below walks through data of article PMC3022637, “The modulation of TRPM7 currents by nafamostat mesilate depends directly upon extracellular concentrations of divalent cations” (Molecular Brain, 2010).

For experiment [1], the target named is T1, TRPM7 current in cultured mouse hippocampal neurons (Mus musculus, UniProt Q923J1).
T1 construct: supports the substantial involvement of endogenous TRPM7 channels in the responses of neurons; endogenous in cells; host or cells: primary cultured hippocampal neurons from embryonic Swiss mice
Put plainly: Whole-cell voltage clamp of TRPM7 currents in cultured hippocampal neurons (low divalent cation-induced or compound-activated). The class given is cell-based. Particulars: for direct activation of TRPM7 current at physiological divalent cations: 2 mM Ca2+ and 1 mM Mg2+.

The test system of the next experiment is human TRPM7 channels. On the set-up: method as in PMID 18719395. Particulars: pH 7.4 to 4.0; cited from earlier work.
Where [2] appears, read: 1 mM (p-GBA up to 1 mM), low divalent-evoked current.
[3] abbreviates: 200 μM, current evoked by 0.1 mM Ca2+ and 0.1 mM Mg2+.

T1 sequence (Q923J1 whole entry): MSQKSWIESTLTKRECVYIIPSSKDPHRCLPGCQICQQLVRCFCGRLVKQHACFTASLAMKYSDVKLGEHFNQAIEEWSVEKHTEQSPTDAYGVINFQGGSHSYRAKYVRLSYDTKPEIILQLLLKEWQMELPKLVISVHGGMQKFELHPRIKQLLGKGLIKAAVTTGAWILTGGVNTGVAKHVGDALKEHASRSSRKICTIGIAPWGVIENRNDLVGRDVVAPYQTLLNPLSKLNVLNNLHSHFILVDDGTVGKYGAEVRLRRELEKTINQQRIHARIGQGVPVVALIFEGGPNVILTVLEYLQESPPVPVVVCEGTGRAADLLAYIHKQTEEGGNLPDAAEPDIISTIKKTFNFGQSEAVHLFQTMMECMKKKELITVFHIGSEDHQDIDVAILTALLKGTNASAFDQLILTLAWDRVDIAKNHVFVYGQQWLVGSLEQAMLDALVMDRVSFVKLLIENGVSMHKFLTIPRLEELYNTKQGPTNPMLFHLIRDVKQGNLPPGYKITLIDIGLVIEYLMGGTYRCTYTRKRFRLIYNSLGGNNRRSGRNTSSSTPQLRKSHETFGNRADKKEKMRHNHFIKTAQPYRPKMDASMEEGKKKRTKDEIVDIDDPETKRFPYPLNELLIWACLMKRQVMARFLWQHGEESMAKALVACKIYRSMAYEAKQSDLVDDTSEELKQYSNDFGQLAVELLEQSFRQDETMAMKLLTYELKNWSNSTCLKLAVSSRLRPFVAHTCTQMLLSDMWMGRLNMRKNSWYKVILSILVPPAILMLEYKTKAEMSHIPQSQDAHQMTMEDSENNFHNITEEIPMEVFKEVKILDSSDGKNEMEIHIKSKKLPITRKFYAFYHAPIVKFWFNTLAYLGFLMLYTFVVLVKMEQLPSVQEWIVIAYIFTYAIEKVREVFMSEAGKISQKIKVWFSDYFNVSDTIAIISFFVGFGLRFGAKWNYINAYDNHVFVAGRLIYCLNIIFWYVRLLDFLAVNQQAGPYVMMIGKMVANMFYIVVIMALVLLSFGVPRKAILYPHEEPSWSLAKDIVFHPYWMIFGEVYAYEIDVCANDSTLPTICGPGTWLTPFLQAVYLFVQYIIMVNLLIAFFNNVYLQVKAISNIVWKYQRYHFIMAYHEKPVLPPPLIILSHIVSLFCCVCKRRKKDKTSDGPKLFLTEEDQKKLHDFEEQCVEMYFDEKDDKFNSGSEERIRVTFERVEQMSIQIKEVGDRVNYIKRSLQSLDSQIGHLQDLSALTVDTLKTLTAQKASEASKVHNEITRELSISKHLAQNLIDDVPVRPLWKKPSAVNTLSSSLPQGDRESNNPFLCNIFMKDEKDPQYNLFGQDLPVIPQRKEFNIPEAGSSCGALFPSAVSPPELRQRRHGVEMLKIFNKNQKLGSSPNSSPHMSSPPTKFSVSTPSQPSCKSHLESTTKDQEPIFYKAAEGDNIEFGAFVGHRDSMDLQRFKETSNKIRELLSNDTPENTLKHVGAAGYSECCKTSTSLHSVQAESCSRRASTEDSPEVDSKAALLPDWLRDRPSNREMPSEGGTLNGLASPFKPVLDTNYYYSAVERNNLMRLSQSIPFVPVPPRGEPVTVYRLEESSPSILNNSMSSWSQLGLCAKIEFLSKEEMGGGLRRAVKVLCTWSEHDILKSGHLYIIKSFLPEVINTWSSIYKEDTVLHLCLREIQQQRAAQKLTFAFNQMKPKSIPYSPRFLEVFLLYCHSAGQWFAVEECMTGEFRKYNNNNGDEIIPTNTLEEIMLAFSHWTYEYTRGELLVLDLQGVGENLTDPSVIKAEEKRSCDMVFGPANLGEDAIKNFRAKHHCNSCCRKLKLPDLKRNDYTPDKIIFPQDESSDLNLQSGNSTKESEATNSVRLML

For the compound `N=C(N)c1ccc2cc(O)ccc2c1` [AN, 6-amidino-2-naphthol], in experiment [1] (200 μM, normalized current), the “I compound / I control, pre-applied” value came out at 85 ± 5%. Also, the “block of TRPM7 current, co-applied” value in experiment [1] (setting [2]) is “only partially inhibited”. Besides, the “I compound / I control, co-applied” value in experiment [1] (1 mM, normalized current) is reported as 69 ± 29%. For the same compound, in experiment [1] (concentration not given), the “potentiation of TRPM7 current, pre-applied” value is “no potentiation”.

`[Ca+2]` [Ca^2+]: the “reduction of IC50 for monovalent cation block on decreasing pH from 7.4 to 4.0” value with human TRPM7 channels is on record as 410 fold.

The Hill coefficient is a measure of the steepness of the concentration-response curve. The term IC50 denotes the concentration that gives 50% inhibition. For `N=C(N)c1ccc(-c2cc3ccc(C(=N)N)cc3[nH]2)cc1` [DAPI], the figures for the “direct activation of TRPM7 current at physiological divalent cations” value in experiment [1] (25 μM) and in experiment [1] (100 μM) were “without effect” and “strong effect”, respectively. In experiment [1] (250 μM, current evoked by 0.1 mM Ca2+ and 0.1 mM Mg2+), the “block of TRPM7 current” value is “completely and reversibly blocked”. Also, the Hill coefficient in experiment [1] (current evoked by 0.1 mM Ca2+ and 0.1 mM Mg2+) is recorded as 1.8. Also, the IC50 in experiment [1] (current evoked by 0.1 mM Ca2+ and 0.1 mM Mg2+, -60 mV, acutely applied, read-out: IC50, block of TRPM7 current) came out at 38 µM.

The term inhibition denotes the change of the read-out against control, counted positive when it falls. As for `CCOC(=O)c1ccc(OC(=O)CCCCCNC(=N)N)cc1` [Gabexate, gabexate], in experiment [1] (200 μM), the “potentiation of TRPM7 current, pre-exposed” value (“potentiation … pre-exposed” for short) is listed as “failed to potentiate”. For the same compound, in experiment [1] (200 μM, read-out: inhibition of TRPM7 current, co-applied), the inhibition at 200 µM worked out at 45 ± 3%.

With `[Gd+3]` [Gd^3+], the “inhibition of TRPM7 current activated by NM” value in experiment [1] (10 μM) worked out at 97 ± 2%.

As to `CC(=O)N[C@@H](CC(C)C)C(=O)N[C@@H](CC(C)C)C(=O)N[C@H](C=O)CCCNC(=N)N` [Leupeptin, leupeptin], the “potentiation … pre-exposed” value in experiment [1] (200 μM) was “no inhibitory or potentiating effects”. For the same compound, the “block of TRPM7 current, co-applied” value in experiment [1] (setting [3]) is “no inhibitory or potentiating effects”.

Regarding `[Mg+2]` [Mg^2+], in the experiment on human TRPM7 channels, the “reduction of IC50 for monovalent cation block on decreasing pH from 7.4 to 4.0” value is given as 510 fold.

Regarding `Cn1cc(NC(=O)c2cc(NC(=O)CN=C(N)N)cn2C)cc1C(=O)NCCC(=N)N` [netropsin], the “potentiation … pre-exposed” value in experiment [1] (200 μM) is “nor potentiated”. Further, in experiment [1] (setting [3]), the “block of TRPM7 current, co-applied” value was “neither blocked”.

As to `N=C(N)Nc1ccc(C(=O)O)cc1` [p-GBA, p-guanidinobenzoic acid], the “block of TRPM7 current, co-applied” value in experiment [1] (setting [2]) is “neither inhibited”. For the same compound, in experiment [1] (1 mM, normalized current), the “I compound / I control, co-applied” value is 94 ± 3% and the “I compound / I control, pre-exposed” value came to 96 ± 1%. Further, the “potentiation … pre-exposed” value in experiment [1] (up to 1 mM) is recorded as “nor potentiated”.

Turning to `N=C(N)NCCCCCCCCCCNC(=N)N` [synthalin], in experiment [1] (200 μM), the “potentiation … pre-exposed” value is on record as “did not block or potentiate”. For the same compound, in experiment [1] (setting [3]), the “block of TRPM7 current, co-applied” value is recorded as “did not block or potentiate”.
